In PubChem BioAssay (NCI):
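Growth conditions: 96-well plates. Treatment: test compound, 48 hours, 5 concentrations. Analysis: linear interpolation between bracketing concentrations; unreached endpoints set to highest concentration. GI50 is the concentration that inhibits growth by half. TGI marks complete inhibition of growth.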

Legend:
Assay in all cases: growth of human tumour cells (NCI), 48 h; in the data active = GI50 below about 0.43 µM; inactive = the rest
HCC-2998 colon = system: HCC-2998 colon
SNB-19 CNS = system: SNB-19 CNS
OVCAR-8 ovarian = system: OVCAR-8 ovarian
HOP-92 NSCLC = system: HOP-92 NSCLC
UO-31 renal = system: UO-31 renal
NCI-H522 lung = system: NCI-H522 lung
RXF 393 renal = system: RXF 393 renal
LOX IMVI melanoma = system: LOX IMVI melanoma
SK-MEL-5 melanoma = system: SK-MEL-5 melanoma
U251 CNS = system: U251 CNS
UACC-62 melanoma = system: UACC-62 melanoma
NCI/ADR-RES ovarian = system: NCI/ADR-RES ovarian
SK-OV-3 ovarian = system: SK-OV-3 ovarian
K-562 leukemia = system: K-562 leukemia
HCT-116 colon = system: HCT-116 colon
MDA-MB-435 = system: MDA-MB-435
RPMI-8226 leukemia = system: RPMI-8226 leukemia
MALME-3M melanoma = system: MALME-3M melanoma
SF-268 CNS = system: SF-268 CNS
SF-539 CNS = system: SF-539 CNS
MOLT-4 leukemia = system: MOLT-4 leukemia
EKVX NSCLC = system: EKVX NSCLC
CCRF-CEM leukemia = system: CCRF-CEM leukemia
M14 melanoma = system: M14 melanoma
HCT-15 colon = system: HCT-15 colon
DU-145 prostate = system: DU-145 prostate
SK-MEL-28 melanoma = system: SK-MEL-28 melanoma
SNB-75 CNS = system: SNB-75 CNS
HL-60(TB) leukemia = system: HL-60(TB) leukemia
OVCAR-3 ovarian = system: OVCAR-3 ovarian
BT-549 breast = system: BT-549 breast
TK-10 renal = system: TK-10 renal
SK-MEL-2 melanoma = system: SK-MEL-2 melanoma
CAKI-1 renal = system: CAKI-1 renal
PC-3 prostate = system: PC-3 prostate
786-0 renal = system: 786-0 renal
HS 578T breast = system: HS 578T breast
SN12C renal = system: SN12C renal
COLO 205 colon = system: COLO 205 colon
A549 NSCLC = system: A549 NSCLC
NCI-H23 lung = system: NCI-H23 lung
OVCAR-4 ovarian = system: OVCAR-4 ovarian
SF-295 CNS = system: SF-295 CNS
HOP-62 NSCLC = system: HOP-62 NSCLC
KM12 colon = system: KM12 colon
UACC-257 melanoma = system: UACC-257 melanoma
A498 renal = system: A498 renal
OVCAR-5 ovarian = system: OVCAR-5 ovarian
T-47D breast = system: T-47D breast
MCF7 breast = system: MCF7 breast
IGROV1 ovarian = system: IGROV1 ovarian
ACHN renal = system: ACHN renal
NCI-H226 lung = system: NCI-H226 lung
MDA-MB-231 breast = system: MDA-MB-231 breast
NCI-H460 lung = system: NCI-H460 lung
SR leukemia = system: SR leukemia
SW-620 colon = system: SW-620 colon
HT29 colon = system: HT29 colon

Nc1ncn([C@@H]2S[C@H](CO)[C@@H](O)[C@@H]2F)c(=O)n1
30.1 µM: TGI (M14 melanoma)
> 100 µM: TGI (HCC-2998 colon) | TGI (SNB-19 CNS) | TGI (OVCAR-8 ovarian) | TGI (HOP-92 NSCLC) | TGI (UO-31 renal) | TGI (NCI-H522 lung) | TGI (RXF 393 renal) | TGI (LOX IMVI melanoma) | TGI (SK-MEL-5 melanoma) | TGI (U251 CNS) | TGI (UACC-62 melanoma) | TGI (NCI/ADR-RES ovarian) | TGI (SK-OV-3 ovarian) | TGI (K-562 leukemia) | TGI (HCT-116 colon) | TGI (MDA-MB-435) | TGI (RPMI-8226 leukemia) | TGI (MALME-3M melanoma) | TGI (SF-268 CNS) | TGI (MOLT-4 leukemia) | TGI (EKVX NSCLC) | TGI (CCRF-CEM leukemia) | TGI (HCT-15 colon) | TGI (DU-145 prostate) | TGI (SK-MEL-28 melanoma) | TGI (SNB-75 CNS) | TGI (OVCAR-3 ovarian) | TGI (BT-549 breast) | TGI (TK-10 renal) | TGI (SK-MEL-2 melanoma) | TGI (CAKI-1 renal) | TGI (PC-3 prostate) | TGI (786-0 renal) | TGI (HS 578T breast) | TGI (SN12C renal) | TGI (COLO 205 colon) | TGI (A549 NSCLC) | TGI (NCI-H23 lung) | TGI (OVCAR-4 ovarian) | TGI (SF-295 CNS) | TGI (HOP-62 NSCLC) | TGI (KM12 colon) | TGI (UACC-257 melanoma) | TGI (OVCAR-5 ovarian) | TGI (T-47D breast) | TGI (MCF7 breast) | TGI (IGROV1 ovarian) | TGI (NCI-H226 lung) | TGI (MDA-MB-231 breast) | TGI (NCI-H460 lung) | TGI (SR leukemia) | TGI (SW-620 colon) | TGI (HT29 colon)
active: GI50 (OVCAR-8 ovarian) 0.409 µM | GI50 (UO-31 renal) 0.372 µM | GI50 (NCI/ADR-RES ovarian) 0.285 µM | GI50 (HCT-116 colon) 0.265 µM | GI50 (MOLT-4 leukemia) 0.172 µM | GI50 (CCRF-CEM leukemia) 0.0399 µM | GI50 (M14 melanoma) 0.377 µM | GI50 (CAKI-1 renal) 0.322 µM | GI50 (786-0 renal) 0.337 µM | GI50 (SN12C renal) 0.364 µM | GI50 (NCI-H23 lung) 0.347 µM | GI50 (A498 renal) 0.267 µM | GI50 (MCF7 breast) 0.279 µM | GI50 (ACHN renal) 0.297 µM
> 31.5 µM: TGI (HL-60(TB) leukemia)
inactive: GI50 (HCC-2998 colon) 1.84 µM | GI50 (SNB-19 CNS) 0.662 µM | GI50 (HOP-92 NSCLC) 0.623 µM | GI50 (NCI-H522 lung) > 100 µM | GI50 (RXF 393 renal) 7.31 µM | GI50 (LOX IMVI melanoma) 1.16 µM | GI50 (SK-MEL-5 melanoma) 0.827 µM | GI50 (U251 CNS) 13.9 µM | GI50 (UACC-62 melanoma) 5.01 µM | GI50 (SK-OV-3 ovarian) 2.94 µM | GI50 (K-562 leukemia) 1.81 µM | GI50 (MDA-MB-435) 0.692 µM | GI50 (RPMI-8226 leukemia) 22.4 µM | GI50 (MALME-3M melanoma) 5.13 µM | GI50 (SF-268 CNS) 4.28 µM | GI50 (SF-539 CNS) 9.8 µM | GI50 (EKVX NSCLC) 8.97 µM | GI50 (HCT-15 colon) 2.7 µM | GI50 (DU-145 prostate) 0.508 µM | GI50 (SK-MEL-28 melanoma) > 100 µM | GI50 (SNB-75 CNS) 43.4 µM | GI50 (HL-60(TB) leukemia) 0.571 µM | GI50 (OVCAR-3 ovarian) > 74 µM | GI50 (BT-549 breast) 54.7 µM | GI50 (TK-10 renal) > 100 µM | GI50 (SK-MEL-2 melanoma) > 100 µM | GI50 (HS 578T breast) > 100 µM | GI50 (COLO 205 colon) 3.57 µM | GI50 (A549 NSCLC) 0.512 µM | GI50 (OVCAR-4 ovarian) > 100 µM | GI50 (SF-295 CNS) 17.7 µM | GI50 (HOP-62 NSCLC) 0.951 µM | GI50 (KM12 colon) 21.4 µM | GI50 (UACC-257 melanoma) > 71.4 µM | GI50 (OVCAR-5 ovarian) 2.64 µM | GI50 (T-47D breast) > 100 µM | GI50 (IGROV1 ovarian) 3.43 µM | GI50 (NCI-H226 lung) 9.99 µM | GI50 (MDA-MB-231 breast) > 100 µM | GI50 (NCI-H460 lung) 0.442 µM | GI50 (SR leukemia) 0.648 µM | GI50 (SW-620 colon) 1.38 µM | GI50 (HT29 colon) 2.45 µM
> 77.9 µM: TGI (SF-539 CNS)
